Tests used:
Escherichia coli [1] = assay: Inhibition of fenton reaction-induced pBR322 supercoiled DNA damage; type: functional
Escherichia coli [2] = assay: Inhibition of fenton reaction-induced pBR322 supercoiled DNA damage at 1 mM; type: functional

Row | Compound | Activity (Escherichia coli [1]) | inhibition (Escherichia coli [2]) [%]
1 | C/C(=C/CC[C@@H](C)[C@H]1CC[C@@]2(C)C3=C(C[C@@H](O[C@@H]4O[C@H](CO)[C@@H](O)[C@H](O)[C@H]4O)[C@]12C)[C@@]1(C)CC[C@@H](O)C(C)(C)[C@@H]1CC3=O)C(=O)O | Dose-dependent effect | 90
2 | C/C(=C/CC[C@@H](C)[C@H]1CC[C@@]2(C)C3=CC[C@H]4C(C)(C)C(=O)CC[C@]4(C)C3=C[C@@H](O[C@@H]3O[C@H](CO)[C@@H](O)[C@H](O)[C@H]3O)[C@]12C)C(=O)O | Dose-dependent effect | 
3 | C/C(=C/CC[C@@H](C)[C@H]1CC[C@@]2(C)C3=CC[C@H]4C(C)(C)[C@H](O)CC[C@]4(C)C3=C[C@@H](O[C@@H]3O[C@H](CO)[C@@H](O)[C@H](O)[C@H]3O)[C@]12C)C(=O)O | Dose-dependent effect | 

Source: ChEMBL document CHEMBL1140678, “New triterpene glucosides, oligoporins A-C, from Oligoporus tephroleucus protect DNA from Fenton reaction” (Bioorg Med Chem Lett, 2007)
